Where two headings read alike, the source gives them in different places.
Experiment: Pharmacokinetic studies in human, Compound I in plasma by LC/MS/MS
Format: in vivo
Details: for Cmax / Tmax / AUC(0-inf) / half-life / Vd / clearance: human, plasma
Experimental: Pharmacokinetic studies and dose escalation studies were conducted in adult patients with metastatic, recurrent, locally, advanced, or unresectable solid malignancy (patients with histologically and/or cytologically confirmed solid malignancy), who received prior anti-cancer treatment(s) until disease progression, at 10 different dose levels of Compound I. Groups 1-7 were administered intravenously on days 1 and 8 of a 4-week cycle at 50, 100, 150, 200, 250, 325, and 475 mg/m^2 (lyophilized formulation), respectively. Groups 8-10 were administered intravenously on days 1,8, and 15 of a 4-week cycle at 325, 475, and 650 mg/m^2 (lyophilized formulation), respectively. Each patient received each dose over 1 hour by IV infusion on days described above.
They lyophilized formulation was reconstituted with 5% glucose in sterile water, or similar biologically acceptable fluid, for IV infusion.
For patients in Groups 1-7, blood samples were typically collected at Day 1 at pre-infusion (t=−1 h), during infusion at about 30 minutes (t=−0.5 h), immediately post infusion (t=0 h), 30 min post-infusion, 1 h post-infusion, 2 h post-infusion, 4 h post-infusion, and 6 h post-infusion, as well as at about 24 h post-infusion, 48 h post-infusion, and 72 h post-infusion. On Day 8, blood samples were typically collected at pre-infusion (t=−1 h), during infusion at about 30 minutes (t=−0.5 h), immediately post infusion (t=0 h), 30 min post-infusion, 1 h post-infusion, 2 h post-infusion, 4 h post-infusion, and 6 h post-infusion, as well as at about 24 h post-infusion, and 168 h post-infusion (Day 15).
For patients in Groups 8-10, blood samples were typically collected at Day 1 at pre-infusion (t=−1 h), during infusion at about 30 minutes (t=−0.5 h), immediately post infusion (t=0 h), 30 min post-infusion, 1 h post-infusion, 2 h post-infusion, 4 h post-infusion, and 6 h post-infusion, as well as at about 24 h post-infusion, 48 h post-infusion, and 72 h post-infusion. On Day 8, blood samples were typically collected at pre-infusion (t=−1 h). On Day 15, blood samples were typically collected at pre-infusion (t=−1 h), during infusion at about 30 minutes (t=−0.5 h), immediately post infusion (t=0 h), 30 min post-infusion, 1 h post-infusion, 2 h post-infusion, 4 h post-infusion, and 6 h post-infusion, as well as at about 24 h post-infusion, and 168 h post-infusion (Day 22).
Levels of Compound I in patient's plasma were analyzed by liquid chromatography tandem mass spectrometry (LC/MS/MS) assay. Experimental procedures of the validated methods are summarized below. The pharmacokinetic parameters after first dose and second dose for Groups 1-7 and after first dose and third dose for Groups 8-10 are shown in Tables 2A-2J. In Tables 2A-2J: SD=standard deviation; Cmax=maximum observed concentration; D=dose; Tmax=time to maximum observed concentration; T1/2=elimination half-life; Vd=volume of distribution; CL=drug clearance; and AUC∞=area under the concentration-time curve from time zero to infinity (total exposure).
The concentrations of Compound I in human plasma samples collected from subjects of as discussed above. Compound I concentrations in plasma samples were measured based on 9 levels of calibration standards from 5.00 to 5000 ng/mL, and 3 levels of QC at 15.0 ng/mL (low), 2500 ng/mL (mid), and 4000 ng/mL (high).
Two reference standard master stock solutions of Compound I were prepared by dissolving the Compound 1 reference standard with 50:50:0.1 ACN:diH2O:FA (v/v/v) and sonicating for 7 minutes (diH2O=deionized water). The resulting solutions were further diluted with 50:50:0.1 ACN:diH2O:FA (v/v/v) into a series of working stock solutions (WSS) for spiking of Compound I calibration standards and QC samples. The master stock solutions were prepared fresh on the day of assay, or stored at nominal 2° C. to 8° C. for later use. Master stock solutions were used within the stability timeframe. […]

[1] = Group 1, 50 mg/m^2 IV, Day 1, mean, n = 4
[2] = Group 1, 50 mg/m^2 IV, Day 8, mean, n = 3
[3] = Group 2, 100 mg/m^2 IV, Day 8, mean, n = 3
[4] = Group 3, 150 mg/m^2 IV, Day 1, mean, n = 4
[5] = Group 3, 150 mg/m^2 IV, Day 8, mean, n = 4
[6] = Group 4, 200 mg/m^2 IV, Day 1, mean, n = 4
[7] = Group 4, 200 mg/m^2 IV, Day 8, mean, n = 4
[8] = Group 5, 250 mg/m^2 IV, Day 1, mean, n = 3
[9] = Group 5, 250 mg/m^2 IV, Day 8, mean, n = 3
[10] = Group 6, 325 mg/m^2 IV, Day 1, mean, n = 3
[11] = Group 6, 325 mg/m^2 IV, Day 8, mean, n = 3
[12] = Group 7, 475 mg/m^2 IV, Day 1, mean, n = 3
[13] = Group 7, 475 mg/m^2 IV, Day 8, mean, n = 3
[14] = Group 9, 475 mg/m^2 IV, Day 1, mean, n = 5
[15] = Group 10, 650 mg/m^2 IV, Day 1, mean, n = 5
[16] = Group 10, 650 mg/m^2 IV, Day 15, mean, n = 5
[17] = intravenous, Groups 8-10, Day 1, range of group means
[18] = iv, 50 mg/m2, Group 1, 50 mg/m^2 IV, Day 1, mean, n = 4
[19] = iv, 50 mg/m2, Group 1, 50 mg/m^2 IV, Day 8, mean, n = 3
[20] = iv, 100 mg/m2, Group 2, 100 mg/m^2 IV, Day 1, mean, n = 4
[21] = iv, 100 mg/m2, Group 2, 100 mg/m^2 IV, Day 8, mean, n = 3
[22] = iv, 150 mg/m2, Group 3, 150 mg/m^2 IV, Day 1, mean, n = 4

AUC∞/D [1]: 170 ng·h/mL/mg
Cmax/D [1]: 8.14 ng/mL/mg
AUC∞/D [2]: 94.9 ng·h/mL/mg
Cmax/D [2]: 7.23 ng/mL/mg
AUC∞/D (Group 2, 100 mg/m^2 IV, Day 1, mean, n = 3): 38.3 ng·h/mL/mg
Cmax/D (Group 2, 100 mg/m^2 IV, Day 1, mean, n = 4): 5.94 ng/mL/mg
AUC∞/D [3]: 47.4 ng·h/mL/mg
Cmax/D [3]: 3.97 ng/mL/mg
AUC∞/D [4]: 84.5 ng·h/mL/mg
Cmax/D [4]: 5.43 ng/mL/mg
AUC∞/D [5]: 91.1 ng·h/mL/mg
Cmax/D [5]: 5.49 ng/mL/mg
AUC∞/D [6]: 42.7 ng·h/mL/mg
Cmax/D [6]: 26.9 ng/mL/mg
AUC∞/D [7]: 44.5 ng·h/mL/mg
Cmax/D [7]: 3.27 ng/mL/mg
AUC∞/D [8]: 48.0 ng·h/mL/mg
Cmax/D [8]: 3.15 ng/mL/mg
AUC∞/D [9]: 64.6 ng·h/mL/mg
Cmax/D [9]: 1.87 ng/mL/mg
AUC∞/D [10]: 46.9 ng·h/mL/mg
Cmax/D [10]: 2.14 ng/mL/mg
AUC∞/D [11]: 57.8 ng·h/mL/mg
Cmax/D [11]: 2.09 ng/mL/mg
AUC∞/D [12]: 44.0 ng·h/mL/mg
Cmax/D [12]: 2.48 ng/mL/mg
AUC∞/D [13]: 44.1 ng·h/mL/mg
Cmax/D [13]: 2.15 ng/mL/mg
AUC∞/D (Group 8, 325 mg/m^2 IV, Day 1, mean, n = 3): 52.1 ng·h/mL/mg
Cmax/D (Group 8, 325 mg/m^2 IV, Day 1, mean, n = 4): 2.04 ng/mL/mg
Cmax/D (Group 8, 325 mg/m^2 IV, Day 15, mean, n = 4): 35.5 ng/mL/mg
AUC∞/D [14]: 42.7 ng·h/mL/mg
Cmax/D [14]: 2.01 ng/mL/mg
AUC∞/D (Group 9, 475 mg/m^2 IV, Day 15, mean, n = 4): 39.8 ng·h/mL/mg
Cmax/D (Group 9, 475 mg/m^2 IV, Day 15, mean, n = 5): 3.34 ng/mL/mg
AUC∞/D [15]: 46.5 ng·h/mL/mg
Cmax/D [15]: 2.61 ng/mL/mg
AUC∞/D [16]: 48.6 ng·h/mL/mg
Cmax/D [16]: 3.44 ng/mL/mg
Cmax (intravenous, 200 mg/m2, Groups 1-7, Day 1, range of group means (200 mg/m^2 outlier apart)): 728 to 1940 ng/mL
Cmax (intravenous, 325 mg/m2, Groups 8-10, Day 15, range of group means (325 mg/m^2 outlier apart)): 2870 to 4170 ng/mL
Tmax (intravenous, Groups 1-7, 50 to 475 mg/m^2, Day 1, range of group means): 0.508 to 1.19 h
AUC(0-inf) (intravenous, Groups 1-7, Day 1, range of group means, read-out: Total exposures (AUC∞)): 6650 to 36200 ng·h/mL
half-life (intravenous, Groups 1-7, Day 1 dose, range of group means, read-out: Apparent elimination half-lives): 37.3 to 81.8 h
Cmax (intravenous, Groups 1-7, Day 8, range of group means): 642 to 1710 ng/mL
AUC(0-inf) (intravenous, Groups 1-7, Day 8, range of group means, read-out: Total exposures (AUC∞)): 9120 to 35400 ng·h/mL
half-life (intravenous, Groups 1-7, Day 8 dose, range of group means, read-out: Apparent elimination half-lives): 42.6 to 96.9 h
Cmax [17]: 1140 to 3080 ng/mL
Tmax [17]: 0.767 to 1.18 h
AUC(0-inf) (intravenous, Groups 8-10, Day 1, range of group means, read-out: Total exposures (AUC∞)): 29100 to 57500 ng·h/mL
half-life (intravenous, Groups 8-10, Day 1 dose, range of group means, read-out: Apparent elimination half-lives): 61.5 to 122 h
AUC(0-inf) (intravenous, Groups 8-10, Day 15, range of group means, read-out: Total exposures (AUC∞)): 32500 to 62200 ng·h/mL
half-life (intravenous, Groups 8-10, Day 15 dose, range of group means, read-out: Apparent elimination half-lives): 59 to 93.6 h
Cmax [18]: 728 ng/mL
Tmax [18]: 0.758 h
Vd [18]: 866 L
clearance [18]: 265 mL/min
AUC(0-inf) (iv, 50 mg/m2, Group 1, 50 mg/m^2 IV, Day 1, mean, n = 4, read-out: AUC∞): 16300 ng·h/mL
half-life (iv, 50 mg/m2, Group 1, 50 mg/m^2 IV, Day 1, mean, n = 4, read-out: T1/2 (converted)): 60.1 h
Cmax [19]: 642 ng/mL
Tmax [19]: 1.01 h
Vd [19]: 752 L
clearance [19]: 275 mL/min
AUC(0-inf) (iv, 50 mg/m2, Group 1, 50 mg/m^2 IV, Day 8, mean, n = 3, read-out: AUC∞): 9120 ng·h/mL
half-life (iv, 50 mg/m2, Group 1, 50 mg/m^2 IV, Day 8, mean, n = 3, read-out: T1/2 (converted)): 42.6 h
Vd (iv, 100 mg/m2, Group 2, 100 mg/m^2 IV, Day 1, mean, n = 3): 1400 L
AUC(0-inf) (iv, 100 mg/m2, Group 2, 100 mg/m^2 IV, Day 1, mean, n = 3, read-out: AUC∞): 6650 ng·h/mL
half-life (iv, 100 mg/m2, Group 2, 100 mg/m^2 IV, Day 1, mean, n = 3, read-out: T1/2 (converted)): 37.3 h
Cmax [20]: 1090 ng/mL
Tmax [20]: 0.508 h
Cmax [21]: 804 ng/mL
Tmax [21]: 0.7 h
Vd [21]: 1850 L
AUC(0-inf) (iv, 100 mg/m2, Group 2, 100 mg/m^2 IV, Day 8, mean, n = 3, read-out: AUC∞): 9160 ng·h/mL
half-life (iv, 100 mg/m2, Group 2, 100 mg/m^2 IV, Day 8, mean, n = 3, read-out: T1/2 (converted)): 60.4 h
Cmax [22]: 1230 ng/mL
Tmax [22]: 0.65 h
Vd [22]: 900 L
clearance [22]: 252 mL/min
AUC(0-inf) (iv, 150 mg/m2, Group 3, 150 mg/m^2 IV, Day 1, mean, n = 4, read-out: AUC∞): 20000 ng·h/mL
half-life (iv, 150 mg/m2, Group 3, 150 mg/m^2 IV, Day 1, mean, n = 4, read-out: T1/2 (converted)): 48.1 h
Cmax (iv, 150 mg/m2, Group 3, 150 mg/m^2 IV, Day 8, mean, n = 4): 1270 ng/mL
Compound: Cc1cnc(CNC(=O)c2c(=O)c3ccc(N4CCCN(C)CC4)nc3n3c2sc2ccccc23)cn1 [Compound I, 2-(4-Methyl-[1,4]diazepan-1-yl)-5-oxo-5H-7-thia-1,11b-diaza-benzo[c]fluorene-6-carboxylic acid (5-methyl-pyrazin-2-ylmethyl)-amide]
Plasma kinetic behavior (all dose levels, Groups 1-10): semi-logarithmic biphasic kinetic behavior

Reference: US20210046071A1, “TETRACYCLIC COMPOUNDS AND THEIR SALTS, COMPOSITIONS, AND METHODS FOR THEIR USE” (Senhwa Biosciences, Inc., priority 2019, published 2021)
